In US20260055365A1, “METHOD FOR SELECTIVE DIFFERENTIATION FROM PLURIPOTENT STEM CELLS TO HINDBRAIN TISSUE” (NEXT&BIO INC., priority 2022, published 2026):

Test system: embryoid bodies formed from pluripotent stem cells
Assay: Selective differentiation of embryoid bodies into hindbrain tissue (region-specific gene expression)
Type: cell-based
Details: cultured 7 days
Procedure: When the density of pluripotent stem cells reached approximately 80%, residues on the cell surface were washed using D-PBS and separated into each cell. Furthermore, the cells were diluted to contain approximately 100,000 cells per 10 ml of the embryoid body formation medium, and approximately 100 μl of the medium containing the cells was injected into each well of an Ultra-Low-attachment U bottom 96 well plate (Corning, 7007). Then, the cells were added in an incubator under a CO2 atmosphere at 37° C. and cultured for about 24 hours to form embryoid bodies. After the embryoid bodies were formed as described above, after about one day, it was confirmed whether one spherical embryoid body with a clean surface was formed well in each well. A hindbrain tissue induction medium containing IWP-2 as an endogenous WNT secretion inhibitor at a concentration of 1 μM and CHIR99021 as a WNT signaling agonist at concentrations of 1 μM, 2 μM, 3 μM, and 5 μM was prepared, and then about 100 μl of the hindbrain tissue induction medium was added to each well containing the embryoid body. About 100 μl of the existing medium was removed once every two days, about 100 μl of the hindbrain tissue induction medium was added, and the embryoid bodies were cultured for 7 days to confirm whether selective differentiation of the embryoid bodies into hindbrain tissue was performed well.

`Cc1c[nH]c(-c2cnc(NCCNc3ccc(C#N)cn3)nc2-c2ccc(Cl)cc2Cl)n1` [CHIR99021] was tested, and the “expression intensities of hindbrain region-specific genes versus other brain region-specific genes” value (hindbrain tissue induction medium with CHIR99021 2 μM to 3 μM plus IWP-2 1 μM) was “much stronger than those of other brain region-specific genes”, the “expression of forebrain region-specific genes versus other brain regions” value (hindbrain tissue induction medium with CHIR99021 approximately 1 μM plus IWP-2 1 μM) was “stronger than that of other brain regions” and the “expression of spinal cord region-specific genes versus other brain regions” value (hindbrain tissue induction medium with CHIR99021 approximately 5 μM plus IWP-2 1 μM) was “stronger than that of other brain regions”. The “expression of hindbrain region-specific genes” value (hindbrain tissue induction medium with CHIR99021 more than 1 μM and less than 5 μM plus IWP-2 1 μM, FIGS. 2 to 4) was “strongly induced”.
